Read-outs that look alike come from different tables or passages of the source. *1 amine or outer side, *2 acyl side, *3 side chain or, on linkers, in order; H or OH if unused. Where a SMILES comes first, the peptide text is derived from it. Where no end group is shown, it is not given here. Side-chain parts run from the residue outwards. The star is where a group is joined. γGlu = O=C(O)[C@H](CCC(=O)[*:2])N[*:1]; Palmitoyl = CCCCCCCCCCCCCCCC(=O)*; Hexanoyl = CCCCCC(=O)*
T1: human VPAC2 (Homo sapiens, UniProt P41587)
T1 construct: expressed in transfected cells
T1 sequence (P41587 24-438): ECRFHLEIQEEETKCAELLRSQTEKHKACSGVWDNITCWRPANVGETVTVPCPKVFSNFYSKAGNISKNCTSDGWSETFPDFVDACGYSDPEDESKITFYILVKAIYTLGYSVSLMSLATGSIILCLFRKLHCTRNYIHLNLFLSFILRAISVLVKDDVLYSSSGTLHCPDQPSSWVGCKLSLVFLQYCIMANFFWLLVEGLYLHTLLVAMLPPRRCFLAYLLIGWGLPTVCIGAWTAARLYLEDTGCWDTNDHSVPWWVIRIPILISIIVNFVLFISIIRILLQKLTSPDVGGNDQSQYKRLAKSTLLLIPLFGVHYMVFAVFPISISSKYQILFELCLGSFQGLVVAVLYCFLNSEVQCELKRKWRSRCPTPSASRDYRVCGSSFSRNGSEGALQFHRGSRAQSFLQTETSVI

T2: human VPAC1 (Homo sapiens, UniProt P32241)
T2 sequence (P32241 31-457): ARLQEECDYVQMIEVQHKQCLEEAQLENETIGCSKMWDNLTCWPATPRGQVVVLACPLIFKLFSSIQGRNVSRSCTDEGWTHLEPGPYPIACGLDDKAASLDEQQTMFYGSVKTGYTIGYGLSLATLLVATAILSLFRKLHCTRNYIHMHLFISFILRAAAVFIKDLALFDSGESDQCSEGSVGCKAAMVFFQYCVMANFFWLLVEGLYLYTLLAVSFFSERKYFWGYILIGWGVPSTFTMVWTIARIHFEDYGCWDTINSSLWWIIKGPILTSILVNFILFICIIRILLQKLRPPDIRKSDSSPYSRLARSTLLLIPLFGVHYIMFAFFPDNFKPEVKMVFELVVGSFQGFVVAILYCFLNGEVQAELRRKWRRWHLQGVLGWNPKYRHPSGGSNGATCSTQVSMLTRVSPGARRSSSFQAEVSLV

T3: rat VPAC1 receptor (rat, UniProt P30083)
T3 sequence: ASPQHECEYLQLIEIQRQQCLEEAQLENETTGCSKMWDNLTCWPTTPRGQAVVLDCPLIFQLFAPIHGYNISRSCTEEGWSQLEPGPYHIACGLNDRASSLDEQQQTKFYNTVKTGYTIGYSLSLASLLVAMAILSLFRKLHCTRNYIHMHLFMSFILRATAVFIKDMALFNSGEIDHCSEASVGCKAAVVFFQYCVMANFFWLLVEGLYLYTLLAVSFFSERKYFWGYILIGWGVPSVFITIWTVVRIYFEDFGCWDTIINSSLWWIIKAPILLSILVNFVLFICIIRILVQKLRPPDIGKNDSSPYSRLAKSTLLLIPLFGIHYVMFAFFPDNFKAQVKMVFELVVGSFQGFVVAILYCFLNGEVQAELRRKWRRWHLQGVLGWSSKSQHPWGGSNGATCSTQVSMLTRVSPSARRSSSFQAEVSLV

T4: human VPAC2 receptor (human) (UniProt P41587)
T4 sequence: T1 sequence (P41587 24-438)

T5: human VPAC1 receptor (human) (UniProt P32241)
T5 sequence: T2 sequence (P32241 31-457)

T6: rat VPAC2 receptor (rat, UniProt P35000)
T6 sequence: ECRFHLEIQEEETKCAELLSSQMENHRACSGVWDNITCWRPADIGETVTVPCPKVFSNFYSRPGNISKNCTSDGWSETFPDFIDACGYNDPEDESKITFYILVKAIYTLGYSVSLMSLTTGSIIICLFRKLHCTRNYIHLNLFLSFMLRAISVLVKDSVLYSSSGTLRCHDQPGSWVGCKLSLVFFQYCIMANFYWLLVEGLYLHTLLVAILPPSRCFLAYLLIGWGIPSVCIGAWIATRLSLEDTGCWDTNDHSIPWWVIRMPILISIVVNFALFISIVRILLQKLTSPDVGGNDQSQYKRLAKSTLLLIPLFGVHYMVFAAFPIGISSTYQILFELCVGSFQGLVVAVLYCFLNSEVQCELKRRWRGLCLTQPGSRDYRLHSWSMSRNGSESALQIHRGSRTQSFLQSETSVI

B1: P30 (peptide)
peptide: Hexanoyl-HSDAVFTDNYTRLRKQVAAKKYLQSIKNSRTSPPP-NH2
SMILES: CCCCCC(=O)N[C@@H](Cc1c[nH]cn1)C(=O)N[C@@H](CO)C(=O)N[C@@H](CC(=O)O)C(=O)N[C@@H](C)C(=O)N[C@H](C(=O)N[C@@H](Cc1ccccc1)C(=O)N[C@H](C(=O)N[C@@H](CC(=O)O)C(=O)N[C@@H](CC(N)=O)C(=O)N[C@@H](Cc1ccc(O)cc1)C(=O)N[C@H](C(=O)N[C@@H](CCCNC(=N)N)C(=O)N[C@@H](CC(C)C)C(=O)N[C@@H](CCCNC(=N)N)C(=O)N[C@@H](CCCCN)C(=O)N[C@@H](CCC(N)=O)C(=O)N[C@H](C(=O)N[C@@H](C)C(=O)N[C@@H](C)C(=O)N[C@@H](CCCCN)C(=O)N[C@@H](CCCCN)C(=O)N[C@@H](Cc1ccc(O)cc1)C(=O)N[C@@H](CC(C)C)C(=O)N[C@@H](CCC(N)=O)C(=O)N[C@@H](CO)C(=O)N[C@H](C(=O)N[C@@H](CCCCN)C(=O)N[C@@H](CC(N)=O)C(=O)N[C@@H](CO)C(=O)N[C@@H](CCCNC(=N)N)C(=O)N[C@H](C(=O)N[C@@H](CO)C(=O)N1CCC[C@H]1C(=O)N1CCC[C@H]1C(=O)N1CCC[C@H]1C(N)=O)[C@@H](C)O)[C@@H](C)CC)C(C)C)[C@@H](C)O)[C@@H](C)O)C(C)C

Experiments:
[1] = system: Normal Wistar rats; assay: Intravenous glucose tolerance test (IVGTT); type: in vivo; settings: Wistar rat, insulin
Description: Intravenous glucose tolerance test (IVGTT): Normal Wistar rats are fasted overnight and are anesthetized prior to the experiment. A blood sampling catheter is inserted into the rats. The compound is given in the jugular vein. Blood samples are taken from the carotid artery. A blood sample is drawn immediately prior to the injection of glucose along with the compound. After the initial blood sample, glucose mixed with compound is injected intravenously (i.v.). A glucose challenge of 0.5 g/kg body weight is given, injecting a total of 1.5 mL vehicle with glucose and agonist per kg body weight. The peptide concentration vary to produce the desired dose in μg/kg. Blood samples are drawn at 2, 4, 6 and 10 minutes after giving glucose. The control group of animals receives the same vehicle along with glucose, but with no compound added. In some instances, a 30 minute post-glucose blood sample is drawn. Aprotinin is added to the blood sample (250 kIU/ml blood). The serum is then analyzed for glucose and insulin using standard methodologies.
The assay uses a formulated and calibrated peptide stock in PBS. Normally, this stock is a prediluted 100 μM stock. However, a more concentrated stock with approximately 1 mg agonist per mL is used. The specific concentration is always known. Variability in the maximal response is mostly due to variability in the vehicle dose.

[2] = molecular target: T1, human VPAC2; assay: Alpha screen cAMP in vitro potency, human VPAC2; type: cell-based
[3] = molecular target: T1, human VPAC2; assay: DiscoveRx cAMP in vitro potency, human VPAC2; type: cell-based
Description: (§1) Also, the cells are washed twice. The cells are incubated in assay buffer plus IBMX for 15 minutes at room temperature. […] The stimuli are present for 30 minutes. Then, the assay buffer is gently removed. […] At day 3, the assay described above for the VPAC2 receptor cell line is performed.

[4] = molecular target: T2, human VPAC1; assay: DiscoveRx cAMP in vitro potency, human VPAC1; type: cell-based; parameters: expressed in transfected cells; host or cells: CHO-PO, transient transfection (Lipofectamine)
Description: as §1

[5] = molecular target: T7, human PAC1 (Homo sapiens, UniProt P41586); assay: cell-based
Description: as §1

[6] = molecular target: T2, human VPAC1; assay: Filter binding assay, human VPAC1 membranes, 125I-labeled VIP tracer; parameters: expressed in transfected cells
[7] = molecular target: T7, human PAC1; assay: biochemical
[8] = molecular target: T1, human VPAC2; assay: Filter binding assay, human VPAC2 membranes, 125I-labeled VIP tracer
[9] = molecular target: rat VPAC2 receptor (Rattus norvegicus, UniProt P35000); assay: cell-based
Description: DiscoveRx: A CHO—S cell line stably expressing human VPAC2 receptor in a 96-well microtiter plate is seeded with 50,000 cells/well the day before the assay. The cells are allowed to attach for 24 hours in 200 μL culture medium. On the day of the experiment, the medium is removed. Also, the cells are washed twice. The cells are incubated in assay buffer plus IBMX for 15 minutes at room temperature. Afterwards, the stimuli are added and are dissolved in assay buffer. The stimuli are present for 30 minutes. Then, the assay buffer is gently removed. The cell lysis reagent of the DiscoveRx cAMP kit is added. Thereafter, the standard protocol for developing the cAMP signal as described by the manufacturer is used (DiscoveRx Inc., USA). EC50 values for cAMP generation are calculated from the raw signal or are based on absolute cAMP levels as determined by a standard curve performed on each plate.
CHO—PO cells are transiently transfected with rat VPAC1 or VPAC2 receptor DNA.

[10] = molecular target: T3, rat VPAC1 receptor; assay: cell-based or functional assay
[11] = molecular target: T4, human VPAC2 receptor (human)
[12] = molecular target: T5, human VPAC1 receptor (human)
[13] = molecular target: T8, human PAC1 receptor (human, UniProt P41586)
Target sequence in this assay (P41586 21-468): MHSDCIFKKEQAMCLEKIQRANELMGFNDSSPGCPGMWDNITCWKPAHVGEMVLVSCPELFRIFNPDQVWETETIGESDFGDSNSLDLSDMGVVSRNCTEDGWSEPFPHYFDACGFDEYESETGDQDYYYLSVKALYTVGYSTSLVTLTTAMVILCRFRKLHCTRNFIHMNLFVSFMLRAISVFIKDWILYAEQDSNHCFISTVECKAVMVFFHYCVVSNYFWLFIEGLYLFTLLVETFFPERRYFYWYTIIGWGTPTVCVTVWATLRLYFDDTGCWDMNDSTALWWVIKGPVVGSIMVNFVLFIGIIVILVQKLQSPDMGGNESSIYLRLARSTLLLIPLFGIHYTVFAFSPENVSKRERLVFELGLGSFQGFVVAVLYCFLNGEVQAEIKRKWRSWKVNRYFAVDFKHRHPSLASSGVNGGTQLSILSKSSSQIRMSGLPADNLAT

[14] = molecular target: T8, human PAC1 receptor; assay: cell-based or functional assay
[15] = molecular target: T6, rat VPAC2 receptor; assay: cell-based or functional assay

T7 sequence (P41586 21-468): as above

Molecule | EC50 [2] [nM] | EC50 [3] [nM] | IC50 [6] [nM] | IC50 [8] [nM] | EC50 for cAMP generation, DiscoveRx [10] [nM] | EC50 (nM) for cAMP generation, Alpha Screen [11] [nM] | EC50 (nM) for cAMP generation, DiscoveRx [11] [nM] | EC50 (nM) for cAMP generation, DiscoveRx [12] [nM] | EC50 (nM) for cAMP generation, DiscoveRx [13] [nM] | other results
CCCCCC(=O)N[C@@H](Cc1c[nH]cn1)C(=O)N[C@@H](CO)C(=O)N[C@@H](CC(=O)O)C(=O)N[C@@H](C)C(=O)N[C@H](C(=O)N[C@@H](Cc1ccccc1)C(=O)N[C@H](C(=O)N[C@@H](CC(=O)O)C(=O)N[C@@H](CC(N)=O)C(=O)N[C@@H](Cc1ccc(O)cc1)C(=O)N[C@H](C(=O)N[C@@H](CCCNC(=N)N)C(=O)N[C@@H](CC(C)C)C(=O)N[C@@H](CCCNC(=N)N)C(=O)N[C@@H](CCCCN)C(=O)N[C@@H](CCC(N)=O)C(=O)N[C@H](C(=O)N[C@@H](C)C(=O)N[C@@H](C)C(=O)N[C@@H](CCCCN)C(=O)N[C@@H](CCCCN)C(=O)N[C@@H](Cc1ccc(O)cc1)C(=O)N[C@@H](CC(C)C)C(=O)N[C@@H](CCC(N)=O)C(=O)N[C@@H](CO)C(=O)N[C@H](C(=O)N[C@@H](CCCCN)C(=O)N[C@@H](CC(N)=O)C(=O)N[C@@H](CO)C(=O)N[C@@H](CCCNC(=N)N)C(=O)N[C@H](C(=O)N[C@@H](CO)C(=O)N1CCC[C@H]1C(=O)N1CCC[C@H]1C(=O)N1CCC[C@H]1C(N)=O)[C@@H](C)O)[C@@H](C)CC)C(C)C)[C@@H](C)O)[C@@H](C)O)C(C)C [Agonist P30] (Hexanoyl-HSDAVFTDNYTRLRKQVAAKKYLQSIKNSRTSPPP-NH2) | 0.08 | 0.09 | 33.8 | 0.22 |  |  |  |  |  | % increase AUC: Dose = 0.1 μg/kg ([1]; dose 0.1 μg/kg): 67%; % increase AUC: Dose = 0.5 μg/kg ([1]; dose 0.5 μg/kg): 241%; % increase AUC: Dose = 10 μg/kg ([1]; dose 10 μg/kg): 378%; EC50 [4]: 6.45 nM; EC50 [5]: 27 nM; Rat Serum Stability (Estimated purity in % after 72 hours) (rat serum, 72 hours): 1.0%; IC50 [7]: 214 nM
CCCCCCCCCCCCCCCC(=O)N[C@@H](CCC(=O)NCCCC[C@H](NC(=O)[C@@H]1CCCN1C(=O)[C@@H]1CCCN1C(=O)[C@@H]1CCCN1C(=O)[C@H](CO)NC(=O)[C@@H](NC(=O)[C@H](CCCNC(=N)N)NC(=O)[C@H](CO)NC(=O)[C@H](CC(N)=O)NC(=O)[C@H](CCCCN)NC(=O)[C@@H](NC(=O)[C@H](CO)NC(=O)[C@H](CCC(N)=O)NC(=O)[C@H](CC(C)C)NC(=O)[C@H](Cc1ccc(O)cc1)NC(=O)[C@H](CCCCN)NC(=O)[C@H](CCCCN)NC(=O)[C@H](C)NC(=O)[C@H](C)NC(=O)[C@@H](NC(=O)[C@H](CCC(N)=O)NC(=O)[C@H](CCCCN)NC(=O)[C@H](CCCNC(=N)N)NC(=O)[C@H](CC(C)C)NC(=O)[C@H](CCCNC(=N)N)NC(=O)[C@@H](NC(=O)[C@H](Cc1ccc(O)cc1)NC(=O)[C@H](CC(N)=O)NC(=O)[C@H](CC(=O)O)NC(=O)[C@@H](NC(=O)[C@H](Cc1ccccc1)NC(=O)[C@@H](NC(=O)[C@H](C)NC(=O)[C@H](CC(=O)O)NC(=O)[C@H](CO)NC(=O)[C@H](Cc1c[nH]cn1)NC(=O)CCCCC)C(C)C)[C@@H](C)O)[C@@H](C)O)C(C)C)[C@@H](C)CC)[C@@H](C)O)C(N)=O)C(=O)O [Agonist P81] (Hexanoyl-HSDAVFTDNYTRLRKQVAAKKYLQSIKNSRTSPPPK([γGlu-Palmitoyl])-NH2) | 0.01 | 0.18 | 228 | 0.8 |  |  |  |  |  | EC50 [9]: 0.05 nM; Rat Serum Stability (Estimated purity in % after 18 hours) (10 μM peptide in rat serum, 37° C. vs 4° C. with aprotinin, 18 hours, EC50,4C/EC50,37C): 68.05%
B1 |  |  |  |  | 0.62 | 0.08 | 0.09 | 6.45 | 27 | 
Ac-HSDAVFTDNYTRLRKQVAAKKYLQSIKNSRTSPPP-NH2 [P32] |  |  |  |  | 0.73 | 0.32 | 0.65 | 8.24 |  | EC50 (nM) for cAMP generation, DiscoveRx [14]: 125 nM
HSDAVFTDNYTRLRKQVAAKKYLQSIKNSRTSPPP-NH2 [P5] |  |  |  |  | 0.96 | 1.5 | 1.21 | 1.1 | 30 | EC50 for cAMP generation, DiscoveRx [15]: 2.23 nM

Reference: patent US20080096811A1, “[…] VPAC2 RECEPTOR PEPTIDE AGONISTS” (Eli Lilly and Company, published 2008)
